Consider 29 compounds from patent US20130143905A1, “NOVEL ANTAGONISTS FOR CCR2 AND USES THEREOF” (BOEHRINGER INGELHEIM INTERNATIONAL GMBH, priority 2009, published 2013).

Structures are written as SMILES. pKi: −log10 of the molar value.

This assay deals with T1, CCR2 (Homo sapiens, UniProt P41597).
T1 construct: Membranes were prepared from THP-1 cells; endogenous in cells; host or cells: THP-1 (human acute monocytic leukaemia cells), membrane preparation
T1 sequence (P41597 1-360 isoform P41597-2): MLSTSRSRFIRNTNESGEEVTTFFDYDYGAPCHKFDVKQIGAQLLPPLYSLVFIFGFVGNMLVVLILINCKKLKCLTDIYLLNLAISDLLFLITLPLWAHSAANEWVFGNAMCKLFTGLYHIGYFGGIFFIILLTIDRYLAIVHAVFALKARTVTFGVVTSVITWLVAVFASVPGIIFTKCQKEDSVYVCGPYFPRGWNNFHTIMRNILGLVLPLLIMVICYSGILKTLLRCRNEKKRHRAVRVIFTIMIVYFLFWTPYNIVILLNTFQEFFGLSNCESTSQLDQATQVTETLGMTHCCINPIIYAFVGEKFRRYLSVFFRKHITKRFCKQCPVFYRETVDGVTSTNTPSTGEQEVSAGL
In words: CCR2 receptor membrane binding assay ([125I]MCP-1, THP-1 membranes, SPA beads). As to conditions: THP-1 cell membranes, [125I]MCP-1 displacement, dissociation constant hKi. The procedure:
The above exemplary substances have been tested for binding to CCR2 using a binding assay as outlined herein below:
THP-1 cells (human acute monocytic leukaemia cells) were cultured under standardized conditions at 37° C. and 5% CO2 in a humidified incubator. THP-1 cells were cultivated in RPMI 1640 medium (Gibco 21875) containing 1% MEM-NEAA (Gibso 11140) 2 mM L-glutamine, 1.5 g/L sodium bicarbonate, 4.5 g/L glucose, 10 mM HEPES and 1.0 mM sodium pyruvate, 90%; 10% fetal calf serum (FCS Gibco 10500-064).
Membranes were prepared from THP-1 cells. THP-1 cells were centrifuged at 300×g at 4° C. for 10 min. The cell pellet was resuspendet in Phosphate Buffer Saline (PBS, including 10 μM Pefabloc and a protease inhibitor mix ‘complete’, Boehringer Mannheim (1 tablet/50 ml)), to a concentration of […]. The membrane preparation was performed by disrupting the cells by nitrogen […] (at 50 bar, for 1 h) in a “Nitrogen Bombe” (Parr Instrument). Cell debris was removed by centrifugation (800×g at 4° C., 1 min). The supernatant was centrifuged at 80000×g, 4° C. for 30 min to sediment the cell membranes. Usually 50 mg of protein (Bradford assay) were yielded from 1×10E9 cells. The membranes were resuspendet in 25 mM HEPES, 25 mM MgCl2, 1 mM CaCl2, 10% Glycerine for storage in aliquots at −80° C. in 25 mM HEPES, 25 mM MgCl2, 1 mM CaCl2, 10% Glycerine and stored at −80° C.
Perkin Elmer NEX 332 Jod 125 MCP-1, Stock: 2200 Ci/mmol solved in 2000 μl assay buffer, stored at −20° C. THP-1 membrane were adjusted with 25 mM HEPES, pH 7.2; 5 mM MgCl2; 0.5 mM CaCl2; 0.2% BSA assay buffer to a concentration of 2.5 μg/15 μl. Amersham Biosciences PVT-WGA Beads (RPNQ0001) were adjusted with assay buffer to a concentration of 0.24 mg/30 μl. For preparation of the membrane-bead-suspension membranes and beads were incubated for 30 min at RT under rotation (60 rpm) with a ratio of 1:2. Test compounds dissolved in 100% DMSO to a concentration of 10 mM and are further diluted with 100% DMSO to 1 mM. All additional compound dilutions were obtained with assay buffer, final 1% DMSO. Compounds, membrane-bead-suspension and [125I]MCP-1 (ca. 25000 cpm/10 μl) were incubated. Bound radioactivity was determined by scintillation counter after 8 h. Determination of affinity of test compounds (dissociation constant hKi) is calculated by iterative fitting of experimental data using the “easy sys” program, which is based on law of mass action (Schittkowski K. (1994), Numerische Mathematik, Vol. 68, 129-142).
Usually pKi stands for the negative decadic logarithm of the Ki, by convention in mol/L. Read a low pKi as a large Ki. Turning to `COc1c(NC[C@H]2CCC[C@@H](c3cccc(C)c3)O2)ncnc1C(=O)N1CCC(N[C@H]2CCOC[C@H]2OC)CC1` [Example 10], the negative logarithm of the Ki (pKi) is 7.72. Take `COc1c(NC[C@@H]2CCC[C@H](c3ccc(Cl)cc3)O2)ncnc1C(=O)N1CCC(N[C@@H]2CCOC[C@@H]2OC)CC1` [Example 10b]: the negative logarithm of the Ki (pKi) is 6.79. Regarding `COc1c(NC[C@H]2CCC[C@@H](c3ccc(C(F)(F)F)cc3)O2)ncnc1C(=O)N1CCC(N[C@@H]2CCOC[C@@H]2OC)CC1` [Example 10i], the pKi was 8.52. Under `COc1c(NC[C@H]2CCC[C@@H](c3ccccc3)C2)ncnc1C(=O)N1CCC(N[C@H]2CCOC[C@H]2OC)CC1` [Example 12] stands 8.30; under `COc1c(NC[C@H]2CCC[C@@H](c3ccc(OC(F)(F)F)cc3)O2)ncnc1C(=O)N1CCC(NC2CCOCC2F)CC1` (some centres unmarked) [Example 10m], 9.00; under `COc1c(NC[C@H]2CCC[C@@H](c3ccc(OC(F)(F)F)cc3)O2)ncnc1C(=O)N1CCC(N[C@H]2CCOC[C@H]2OC)CC1` [Example 10j], 9.00. For `COc1c(NC[C@H]2CCC[C@@H](c3ccc(C(F)(F)F)cc3)O2)ncnc1C(=O)N1CCC(N[C@H]2CCOC[C@H]2OC)CC1` [Example 10h] the value was 9.00; for `COc1c(NC[C@H]2CCC[C@@H](c3ccc(C)cc3)O2)ncnc1C(=O)N1CCC(N[C@@H]2CCOC[C@@H]2OC)CC1` [Example 6], 7.74; for `COc1c(NCC2CCCC(c3ccccc3)C2)ncnc1C(=O)N1CCC(N2CCC(N(C)S(C)(=O)=O)CC2)CC1` (centres unmarked) [Example 4], 7.82. Take `COc1c(NC[C@H]2CCC[C@@H](c3ccc(C)cc3)O2)ccnc1C(=O)N1CCC(N[C@@H]2CCOC[C@@H]2OC)CC1` [Example 16]: the negative-log Ki (pKi) was 7.66. For `COc1c(NC[C@H]2CCC[C@@H](c3ccc(Cl)cc3)O2)ncnc1C(=O)N1CCC(N[C@H]2CCOC[C@H]2OC)CC1` [Example 10g] the value was 8.15; for `COc1c(NC[C@H]2CCC[C@@H](c3ccc(C)cc3)O2)ccnc1C(=O)N1CCC(N[C@H]2CCOC[C@H]2OC)CC1` [Example 15], 7.89.

Turning to `COc1c(NC[C@@H]2CCC[C@H](c3ccc(Cl)cc3)O2)ncnc1C(=O)N1CCC(N2CCC(N(C)S(C)(=O)=O)CC2)CC1` [Example 10c], the pKi was 6.42.

Compound `COc1c(NC[C@H]2CCC[C@@H](c3cccc(C)c3)O2)ncnc1C(=O)N1CCC(N2CCC(N(C)S(C)(=O)=O)CC2)CC1` [Example 8] showed a negative logarithm of the Ki (pKi) of 7.14.

In the case of `COc1c(NCc2ccc(C(C)(C)C)cc2)ncnc1C(=O)N1CCC(N2CCC(N(C)S(C)(=O)=O)CC2)CC1` [Example 10a], the pKi is 6.92. In turn, `COc1c(NC[C@H]2CCC[C@@H](c3ccc(C)cc3)O2)ncnc1C(=O)N1CCC(N[C@H]2CCOC[C@H]2OC)CC1` [Example 7] gave a pKi of 7.89. The compound `COc1c(NC[C@H]2CCC[C@@H](c3ccc(C(F)(F)F)cc3)O2)ncnc1C(=O)N1CCC(NC2CCOCC2F)CC1` (some centres unmarked) [Example 10l] gave a negative logarithm of the Ki (pKi) of 8.40. As to `COc1c(NC[C@H]2CCC[C@@H](c3ccc(OC(F)(F)F)cc3)O2)ncnc1C(=O)N1CCC(N[C@@H]2CCOC[C@@H]2OC)CC1` [Example 10k], the negative logarithm of the Ki (pKi) is 8.70. `COc1c(NC[C@H]2CCC[C@@H](c3ccccc3)C2)ncnc1C(=O)N1CCC(NC2CCOCC2OC)CC1` (some centres unmarked) [Example 13] had a negative-log Ki (pKi) of 8.30.

In turn, `CN(C1CCN(C2CCN(C(=O)c3ncnc(NCc4ccc(C(C)(C)C)cc4)c3C3CC3)CC2)CC1)S(C)(=O)=O` [Example 2] gave a negative logarithm of the Ki (pKi) of 7.09. On to `COc1c(NC[C@@H]2CCC[C@H](c3ccc(Cl)cc3)O2)ncnc1C(=O)N1CCC(N[C@H]2CCOC[C@H]2OC)CC1` [Example 10d], for which the pKi was 6.92.

In the case of `COc1c(NC[C@H]2CCC[C@@H](c3ccccc3)C2)ncnc1C(=O)N1CCC(N[C@@H]2CCOC[C@@H]2OC)CC1` [Example 11], the pKi was 7.92.

`CN(C1CCN(C2CCN(C(=O)c3ncnc(NC[C@H]4CCC[C@@H](c5ccccc5)C4)c3C3CC3)CC2)CC1)S(C)(=O)=O` [Example 1]: the pKi was 8.05. For `COc1c(NC[C@H]2CCC[C@@H](c3ccc(C)cc3)O2)ncnc1C(=O)N1CCC(N2CCC(N(C)S(C)(=O)=O)CC2)CC1` [Example 5] the value was 7.08; for `COc1c(NC[C@H]2CCC[C@@H](c3cccc(C)c3)O2)ncnc1C(=O)N1CCC(N[C@@H]2CCOC[C@@H]2OC)CC1` [Example 9], 7.60. Under `COc1c(NC[C@H]2CCC[C@@H](c3ccccc3)C2)ncnc1C(=O)N1CCC(N2CCC(N(C)S(C)(=O)=O)CC2)CC1` [Example 3] stands 8.30. Regarding `COc1c(NC[C@H]2CCC[C@@H](c3ccccc3)C2)ncnc1C(=O)N1CCC(N(C)C2CCOCC2OC)CC1` (some centres unmarked) [Example 14], the negative-log Ki (pKi) is 7.80. In turn, `COc1c(NC[C@H]2CCC[C@@H](c3ccc(Cl)cc3)O2)ncnc1C(=O)N1CCC(N2CCC(N(C)S(C)(=O)=O)CC2)CC1` [Example 10f] had a negative-log Ki (pKi) of 7.22. Regarding `COc1c(NC[C@H]2CCC[C@@H](c3ccc(Cl)cc3)O2)ncnc1C(=O)N1CCC(N[C@@H]2CCOC[C@@H]2OC)CC1` [Example 10e], the pKi is 8.00.
